{"source": "the supplement of paper PMC10307832", "assay_in_all_cases": "relative viability (nuclei count vs DMSO), 5 days (fraction); higher = more cells survive", "key": {"[1]": {"compound": "CN[C@@H]1C[C@H]2O[C@@](C)([C@@H]1OC)n1c3ccccc3c3c4c(c5c6ccccc6n2c5c31)C(=O)NC4 [Staurosporine] + CC(C)C[C@H](NC(=O)[C@H](Cc1ccccc1)NC(=O)c1cnccn1)B(O)O [Bortezomib] (partner 0.002 µM)", "outline": "(§1)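 Values are medians from duplicate plates. Each reflects relative viability, defined as the nuclei count of treated wells over that of vehicle wells. Lung cancer cell lines in 1536-well plates were pin-tool dosed one day after seeding with one drug alone or with a fixed anchor-drug dose plus five library-drug doses (not always all listed) in √10 steps, then fixed, stained and imaged at 4× after 5 days.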"}, "[2]": {"compound": "O=c1[nH]cc(F)c(=O)[nH]1 [5-Fluorouracil] + Nc1nc2[nH]cc(CCc3ccc(C(=O)N[C@@H](CCC(=O)O)C(=O)O)cc3)c2c(=O)[nH]1 [Pemetrexed] (partner 0.2 µM)", "outline": "as §1"}, "[3]": {"compound": "CN[C@@H]1C[C@H]2O[C@@](C)([C@@H]1OC)n1c3ccccc3c3c4c(c5c6ccccc6n2c5c31)C(=O)NC4 [Staurosporine] + Cc1cc(Nc2cc(N3CCN(C)CC3)nc(Sc3ccc(NC(=O)C4CC4)cc3)n2)n[nH]1 [Tozasertib] (partner 0.1 µM)", "outline": "as §1"}, "[4]": {"compound": "O=c1[nH]cc(F)c(=O)[nH]1 [5-Fluorouracil] + CC1(C)CCC(c2ccc(Cl)cc2)=C(CN2CCN(c3ccc(C(=O)NS(=O)(=O)c4ccc(N[C@H](CCN5CCOCC5)CSc5ccccc5)c(S(=O)(=O)C(F)(F)F)c4)cc3)CC2)C1 [Navitoclax] (partner 0.5 µM)", "outline": "as §1"}}}
{"cell line": "NCI-H1666", "values": [{"measurement": "relative viability", "setting": "[1]; first compound 0.005 µM", "value": 0.638}, {"measurement": "relative viability", "setting": "[1]; first compound 0.01581 µM", "value": 0.468}, {"measurement": "relative viability", "setting": "[1]; first compound 0.05 µM", "value": 0.493}, {"measurement": "relative viability", "setting": "[1]; first compound 0.1581 µM", "value": 0.29}, {"measurement": "relative viability", "setting": "[1]; first compound 0.5 µM", "value": 0.189}, {"measurement": "relative viability", "setting": "[2]; first compound 0.02 µM", "value": 0.922}, {"measurement": "relative viability", "setting": "[2]; first compound 0.2 µM", "value": 0.763}, {"measurement": "relative viability", "setting": "[2]; first compound 0.6325 µM", "value": 0.61}, {"measurement": "relative viability", "setting": "[2]; first compound 2 µM", "value": 0.548}, {"measurement": "relative viability", "setting": "[3]; first compound 0.005 µM", "value": 0.544}, {"measurement": "relative viability", "setting": "[3]; first compound 0.01581 µM", "value": 0.44}, {"measurement": "relative viability", "setting": "[3]; first compound 0.05 µM", "value": 0.402}, {"measurement": "relative viability", "setting": "[3]; first compound 0.1581 µM", "value": 0.355}, {"measurement": "relative viability", "setting": "[3]; first compound 0.5 µM", "value": 0.257}, {"measurement": "relative viability", "setting": "[4]; first compound 0.02 µM", "value": 0.878}, {"measurement": "relative viability", "setting": "[4]; first compound 0.2 µM", "value": 0.406}, {"measurement": "relative viability", "setting": "[4]; first compound 0.6325 µM", "value": 0.327}, {"measurement": "relative viability", "setting": "[4]; first compound 2 µM", "value": 0.311}]}
{"cell line": "NCI-H1993", "values": [{"measurement": "relative viability", "setting": "[1]; first compound 0.01581 µM", "value": 0.44}, {"measurement": "relative viability", "setting": "[1]; first compound 0.05 µM", "value": 0.463}, {"measurement": "relative viability", "setting": "[1]; first compound 0.1581 µM", "value": 0.483}, {"measurement": "relative viability", "setting": "[1]; first compound 0.5 µM", "value": 0.315}, {"measurement": "relative viability", "setting": "[2]; first compound 0.02 µM", "value": 0.559}, {"measurement": "relative viability", "setting": "[2]; first compound 0.2 µM", "value": 0.49}, {"measurement": "relative viability", "setting": "[2]; first compound 0.6325 µM", "value": 0.577}, {"measurement": "relative viability", "setting": "[2]; first compound 2 µM", "value": 0.525}, {"measurement": "relative viability", "setting": "[3]; first compound 0.005 µM", "value": 0.639}, {"measurement": "relative viability", "setting": "[3]; first compound 0.01581 µM", "value": 0.535}, {"measurement": "relative viability", "setting": "[3]; first compound 0.05 µM", "value": 0.434}, {"measurement": "relative viability", "setting": "[3]; first compound 0.1581 µM", "value": 0.491}, {"measurement": "relative viability", "setting": "[3]; first compound 0.5 µM", "value": 0.429}, {"measurement": "relative viability", "setting": "[4]; first compound 0.02 µM", "value": 0.952}, {"measurement": "relative viability", "setting": "[4]; first compound 0.2 µM", "value": 0.885}, {"measurement": "relative viability", "setting": "[4]; first compound 0.6325 µM", "value": 0.752}, {"measurement": "relative viability", "setting": "[4]; first compound 2 µM", "value": 0.669}]}
{"cell line": "NCI-H520", "values": [{"measurement": "relative viability", "setting": "[1]; first compound 0.005 µM", "value": 0.716}, {"measurement": "relative viability", "setting": "[1]; first compound 0.01581 µM", "value": 0.128}, {"measurement": "relative viability", "setting": "[1]; first compound 0.05 µM", "value": 0.307}, {"measurement": "relative viability", "setting": "[1]; first compound 0.1581 µM", "value": 0.207}, {"measurement": "relative viability", "setting": "[1]; first compound 0.5 µM", "value": 0.117}, {"measurement": "relative viability", "setting": "[2]; first compound 0.02 µM", "value": 0.625}, {"measurement": "relative viability", "setting": "[2]; first compound 0.2 µM", "value": 0.742}, {"measurement": "relative viability", "setting": "[2]; first compound 0.6325 µM", "value": 0.541}, {"measurement": "relative viability", "setting": "[2]; first compound 2 µM", "value": 0.41}, {"measurement": "relative viability", "setting": "[3]; first compound 0.005 µM", "value": 0.57}, {"measurement": "relative viability", "setting": "[3]; first compound 0.01581 µM", "value": 0.473}, {"measurement": "relative viability", "setting": "[3]; first compound 0.05 µM", "value": 0.423}, {"measurement": "relative viability", "setting": "[3]; first compound 0.1581 µM", "value": 0.366}, {"measurement": "relative viability", "setting": "[3]; first compound 0.5 µM", "value": 0.303}, {"measurement": "relative viability", "setting": "[4]; first compound 0.02 µM", "value": 0.81}, {"measurement": "relative viability", "setting": "[4]; first compound 0.2 µM", "value": 1.19}, {"measurement": "relative viability", "setting": "[4]; first compound 0.6325 µM", "value": 0.873}, {"measurement": "relative viability", "setting": "[4]; first compound 2 µM", "value": 0.406}]}
{"cell line": "HCC-78", "values": [{"measurement": "relative viability", "setting": "[1]; first compound 0.005 µM", "value": 0.483}, {"measurement": "relative viability", "setting": "[1]; first compound 0.01581 µM", "value": 0.388}, {"measurement": "relative viability", "setting": "[1]; first compound 0.05 µM", "value": 0.256}, {"measurement": "relative viability", "setting": "[1]; first compound 0.1581 µM", "value": 0.404}, {"measurement": "relative viability", "setting": "[1]; first compound 0.5 µM", "value": 0.332}, {"measurement": "relative viability", "setting": "[2]; first compound 0.02 µM", "value": 0.924}, {"measurement": "relative viability", "setting": "[2]; first compound 0.2 µM", "value": 0.866}, {"measurement": "relative viability", "setting": "[2]; first compound 0.6325 µM", "value": 0.858}, {"measurement": "relative viability", "setting": "[2]; first compound 2 µM", "value": 0.915}, {"measurement": "relative viability", "setting": "[3]; first compound 0.005 µM", "value": 0.545}, {"measurement": "relative viability", "setting": "[3]; first compound 0.01581 µM", "value": 0.287}, {"measurement": "relative viability", "setting": "[3]; first compound 0.05 µM", "value": 0.424}, {"measurement": "relative viability", "setting": "[3]; first compound 0.1581 µM", "value": 0.429}, {"measurement": "relative viability", "setting": "[3]; first compound 0.5 µM", "value": 0.258}, {"measurement": "relative viability", "setting": "[4]; first compound 0.02 µM", "value": 0.55}, {"measurement": "relative viability", "setting": "[4]; first compound 0.2 µM", "value": 0.805}, {"measurement": "relative viability", "setting": "[4]; first compound 0.6325 µM", "value": 0.285}]}
{"cell line": "NCI-H1975", "values": [{"measurement": "relative viability", "setting": "[1]; first compound 0.005 µM", "value": 0.22}, {"measurement": "relative viability", "setting": "[1]; first compound 0.01581 µM", "value": 0.144}, {"measurement": "relative viability", "setting": "[1]; first compound 0.05 µM", "value": 0.143}, {"measurement": "relative viability", "setting": "[1]; first compound 0.1581 µM", "value": 0.129}, {"measurement": "relative viability", "setting": "[2]; first compound 0.02 µM", "value": 0.309}, {"measurement": "relative viability", "setting": "[2]; first compound 0.2 µM", "value": 0.28}, {"measurement": "relative viability", "setting": "[2]; first compound 0.6325 µM", "value": 0.243}, {"measurement": "relative viability", "setting": "[2]; first compound 2 µM", "value": 0.219}, {"measurement": "relative viability", "setting": "[3]; first compound 0.005 µM", "value": 0.363}, {"measurement": "relative viability", "setting": "[3]; first compound 0.01581 µM", "value": 0.205}, {"measurement": "relative viability", "setting": "[3]; first compound 0.05 µM", "value": 0.128}, {"measurement": "relative viability", "setting": "[3]; first compound 0.1581 µM", "value": 0.0804}, {"measurement": "relative viability", "setting": "[3]; first compound 0.5 µM", "value": 0.0788}, {"measurement": "relative viability", "setting": "[4]; first compound 0.02 µM", "value": 1.11}, {"measurement": "relative viability", "setting": "[4]; first compound 0.2 µM", "value": 1.1}, {"measurement": "relative viability", "setting": "[4]; first compound 0.6325 µM", "value": 0.514}, {"measurement": "relative viability", "setting": "[4]; first compound 2 µM", "value": 0.261}]}
